Laboratory results reported in patent US8273766B2, “Tetrahydroisoquinoline compound” (Kowa Company, Ltd., priority 2007, dated 2012).

molecular target: T1, CCR3 (Cavia porcellus, UniProt Q9Z2I3); assay: CCR3 antagonistic action: eotaxin-induced migration of guinea pig eosinophils (chemotaxis chamber); assay type: cell-based; settings: inhibition of migration of guinea pig eosinophils toward guinea pig eotaxin 100 ng/mL; 30 min pretreatment at 37° C., 1 hour reaction
T1 construct: from tissue; host or cells: peritoneal eosinophils of polymyxin B-treated male Hartley guinea pigs (Japan SLC, Inc.)
T1 sequence (Q9Z2I3 1-358): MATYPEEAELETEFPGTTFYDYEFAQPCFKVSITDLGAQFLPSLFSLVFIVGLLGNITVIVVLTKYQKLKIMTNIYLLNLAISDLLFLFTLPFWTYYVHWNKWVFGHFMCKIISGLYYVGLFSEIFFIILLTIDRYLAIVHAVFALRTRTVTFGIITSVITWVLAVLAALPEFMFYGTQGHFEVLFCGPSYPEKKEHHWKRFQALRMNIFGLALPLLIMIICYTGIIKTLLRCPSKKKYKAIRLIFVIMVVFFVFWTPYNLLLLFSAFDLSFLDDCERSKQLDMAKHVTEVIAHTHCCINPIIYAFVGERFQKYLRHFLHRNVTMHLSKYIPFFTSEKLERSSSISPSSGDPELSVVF
Experimental: Test Example 1 Test of a CCR3 Antagonistic Action
Guinea pig eosinophils were prepared with reference to a literature (Pinkus, Blood. 52 (1978) 127-134). That is, to a six-week old male Hartley guinea pig (Japan SLC, Inc.) was intraperitoneally injected polymyxin B (SIGMA) diluted with PBS (−) at 2 mg per animal once a week. After repeating the same operation four times for 24 hours, the abdominal cavity of each individual under anesthesia with diethyl ether was injected with 50 mL of PBS (−) containing 6 U/mL of heparin and 1 mM EDTA, and the liquid was collected. It was washed with PBS (−) containing 1 mM EDTA, and the cells were suspended in a Percoll solution having a specific density of 1.070 were centrifuged using a discontinuous Percoll gradient liquid to obtain an eosinophilic crude fraction. After washing with PBS (−), they were suspended in RPMI-1640 culture medium (SIGMA) containing 1% FCS, and cultured in a CO2 incubator overnight. Next day, the cells were harvested, a compound to be tested was added to the eosinophils suspended in the RPMI-1640 culture medium containing 0.1% BSA (bovine serum albumin, SIGMA), and then pretreatment was performed by leaving it to stand still at 37° C. for 30 minutes. A mixed liquid of guinea pig eotaxin (Chemical Synthesis Services) and the compound to be tested that had been prepared to be at a final concentration of 100 ng/mL was added into a lower chamber of 96-well chemotaxis chambers (Neuroprobe), and then a mixed liquid of 12.0×10^5 eosinophils per well and the compound to be tested was sequentially set in an upper chamber of a polycarbonate filter (Neuroprobe) having a pore size of 5 μm after completion of the treatment with polyvinyl pyrrolidone (PVP), and allowed to undergo a reaction in a CO2 incubator for 1 hour. After completion of the reaction, the filter was taken out, the cells were stained in a Diff-Quik stain kit (International Reagents Co., Ltd.), and the migrated eosinophils were microscopically counted. Five fields of view per well were counted, and an average value of the counts was taken as a count of migrated eosinophils.

Point of comparison: CC(=O)c1cccc(CNCCN2Cc3ccccc3CC2Cc2ccc(F)cc2)c1 (stereo not drawn) [Example 106, N-(3-acetylbenzyl)-2-[3-(4-fluorobenzyl)-3,4-dihydroisoquinolin-2(1H)-yl]ethanamine], IC50 7 nM. Against it:
- CS(=O)(=O)Nc1cccc(CNCCN2Cc3ccc(F)cc3CC2Cc2ccc(Cl)cc2)c1 (stereo not drawn) [Example 157, N-(3-methanesulfonylaminobenzyl)-2-[3-(4-chlorobenzyl)-6-fluoro-3,4-dihydroisoquinolin-2(1H)-yl]ethanamine] — 3.6-fold higher, 25 nM
- COCCNc1ccc(CNCCN2Cc3ccc(F)cc3CC2Cc2ccc(F)cc2)cc1 (stereo not drawn) [Example 150, 4-[[2-[6-fluoro-3-(4-fluorobenzyl)-3,4-dihydroisoquinolin-2(1H)-yl]ethylamino]methyl]-N-(2-methoxyethyl)aniline] — 1.8-fold lower, 4 nM
- Fc1ccc(CC2Cc3ccccc3CN2CCNCc2ccncc2)cc1 (stereo not drawn) [Example 171, N-(pyridin-4-yl)methyl-2-[3-(4-fluorobenzyl)-3,4-dihydroisoquinolin-2(1H)-yl]ethanamine] — 2-fold higher, 14 nM
- CC(C)(C)c1ccc(CNCCN2Cc3ccccc3CC2Cc2ccc(F)cc2)cc1 (stereo not drawn) [Example 96, N-(4-tert-butylbenzyl)-2-[3-(4-fluorobenzyl)-3,4-dihydroisoquinolin-2(1H)-yl]ethanamine] — 4.3-fold higher, 30 nM
- Fc1ccc(CC2Cc3cc(F)ccc3CN2CCNCc2ccncc2)cc1 (stereo not drawn) [Example 180, N-(pyridin-4-yl)methyl-2-[6-fluoro-3-(4-fluorobenzyl)-3,4-dihydroisoquinolin-2(1H)-yl]ethanamine] — 3.5-fold lower, 2 nM
- CC(C)Nc1ccc(CNCCN2Cc3ccc(F)cc3CC2Cc2ccc(F)cc2)cc1 (stereo not drawn) [Example 138, 4-[[2-[6-fluoro-3-(4-fluorobenzyl)-3,4-dihydroisoquinolin-2(1H)-yl]ethylamino]methyl]-N-isopropylaniline] — 1.8-fold lower, 4 nM
- CC(C)(C)c1ccc(CNCCN2Cc3ccc(F)cc3CC2Cc2ccc(Cl)cc2)cc1 (stereo not drawn) [Example 156, N-(4-tert-butylbenzyl)-2-[3-(4-chlorobenzyl)-6-fluoro-3,4-dihydroisoquinolin-2(1H)-yl]ethanamine] — 11-fold higher, 80 nM
- CC(C)(O)c1ccc(CNCCN2Cc3ccc(F)cc3CC2Cc2ccc(F)cc2)cc1 (stereo not drawn) [Example 154, N-[4-(1-hydroxy-1-methylethyl)benzyl]-2-[6-fluoro-3-(4-fluorobenzyl)-3,4-dihydroisoquinolin-2(1H)-yl]ethanamine] — 2.9-fold higher, 20 nM
- CC(C)Nc1ccc(CNCCN2Cc3cc(F)ccc3CC2Cc2ccc(F)cc2)cc1 (stereo not drawn) [Example 161, 4-[[2-[7-fluoro-3-(4-fluorobenzyl)-3,4-dihydroisoquinolin-2(1H)-yl]ethylamino]methyl]-N-isopropylaniline] — 3.6-fold higher, 25 nM
- CCNc1ccc(CNCCN2Cc3ccc(F)cc3CC2Cc2ccc(F)cc2)cc1 (stereo not drawn) [Example 139, 4-[[2-[6-fluoro-3-(4-fluorobenzyl)-3,4-dihydroisoquinolin-2(1H)-yl]ethylamino]methyl]-N-ethylaniline] — 5.7-fold higher, 40 nM
- CS(=O)(=O)Nc1cccc(CNCCN2Cc3ccc(F)cc3CC2Cc2ccc(F)cc2)c1 (stereo not drawn) [Example 126, N-[3-(methanesulfonylamino)benzyl]-2-[6-fluoro-3-(4-fluorobenzyl)-3,4-dihydroisoquinolin-2(1H)-yl]ethanamine] — 7-fold lower, 1 nM
